Tests used:
[1] = system: induratio penis plastica at an advanced chronic stage; assay: Example 6: oral propionyl L-carnitine versus oral acetyl L-carnitine, each plus intraplaque verapamil; format: in vivo, human
Description: 20 subjects (mean age 48, range 40-61) with induratio penis plastica at an advanced chronic stage were randomised to two groups of 10 patients each. The first group was submitted to therapy with oral propionyl L-carnitine (PLC) 1×2 g/day 3 months and intraplaque verapamil 10 mg (10 infiltrations, 1 a week), while the second group was submitted to therapy with oral acetyl L-carnitine (ALC) 1×2 g/day for 3 months+intraplaque verapamil 10 mg (10 infiltrations, 1 a week). The variables measured were plaque area by dynamic colour Doppler penile ultrasonography. In view of the limited number of subjects in the sample it was not possible to carry out any analysis of other data; in any event, the size of the plaque is the most important variable when monitoring La Peyronie's disease, since all the other symptoms depend on the extent of the plaque (Belgrano, ibid.).
The results are presented in Table 14, where the data are expressed as mean±standard deviation (S.D.).

[2] = system: chemically induced inflammation of both the skin and the arteries; details: rats; cited from earlier work
[3] = system: La Peyronie's disease in the early stages; details: oral treatment; acute and early chronic stages; cited from earlier work
[4] = system: induratio penis plastica in the chronic stage; assay: Example 3: intraplaque triamcinolone acetonide versus intraplaque propionyl L-carnitine; format: in vivo, human
Description: (§1) The examples are based on a limited number of patients and therefore the analysis of the results was carried out only with regard to the fundamental characteristics of the disease, namely plaque area in mm^2 (as measured by means of dynamic colour Doppler ultrasonography) and curvature of the artificially erect penis induced by intracavernous injection of 20 μg of prostaglandin E1.
In this case […] the study population consisted of 34 patients (mean age 50, range 44-63) with induratio penis plastica in the chronic stage, who presented an irremediable intolerance to intraplaque verapamil.
17 were submitted to intraplaque infiltrations with propionyl L-carnitine 300 mg, 1 infiltration per week for 10 weeks, and 17 to intraplaque infiltrations with triamcinolone acetonide 40 mg (Kenacort® Squibb), 1 infiltration per week for 10 weeks. The variables measured were plaque area in mm^2 by dynamic colour Doppler ultrasonography and the curvature of the artificially erect penis in degrees.
The results are presented in Table 3, where the data are expressed as mean±standard deviation (S.D.).

[5] = system: induratio penis plastica in the early chronic stage; assay: Example 2: oral tamoxifen versus intramuscular propionyl L-carnitine, randomised patients; format: in vivo, human
Description: as §1
30 subjects (mean age 50, range 42-63) with induratio penis plastica in the early chronic stage were randomised to two groups of 15 patients each. The first group was submitted to therapy with intramuscular propionyl L-carnitine 300×2 mg/day for 3 months, and the second group to therapy with oral tamoxifen 20×2 mg/day. The variables measured were plaque area (in all subjects) and penile curvature, which was present in 12 subjects per group. […] Intraplaque verapamil was not used in these patients.
The results are presented in Table 2, where the data are expressed as mean±standard deviation (S.D.).

[6] = system: induratio penis plastica (La Peyronie's disease) at the chronic stage; assay: Example 1: oral tamoxifen versus intravenous propionyl L-carnitine, randomised patients; format: in vivo, human
Description: as §1
40 subjects (mean age 52, range 44-61) with induratio penis plastica (La Peyronie's disease) at the chronic stage were randomised […] intravenous propionyl L-carnitine 300×2 mg/day for 3 months, and the second group to therapy with oral tamoxifen 20×2 mg/day. The variables measured were plaque area by means of dynamic colour Doppler ultrasonography and penile curvature, which was present in 16 patients per group. […] Intraplaque verapamil was not used in these patients.
The results are presented in Table 1, where the data are expressed as mean±standard deviation (S.D.).

[7] = system: advanced La Peyronie's disease; assay: Example 4: randomised double-blind study, intraplaque verapamil plus oral propionyl L-carnitine or tamoxifen; format: in vivo, human; details: curvature, plaque area, I.I.E.F. 15 score, EDV, RI
Description: The study was conducted according to a randomised double-blind protocol. […] The data were collected 6 months after the end of therapy when the initial history taking and semeiological examination were repeated. […] I.I.E.F. 15 score; • V. Peak systolic velocity (PSV) (cm/sec), end-diastolic velocity (EDV) (cm/sec) and the resistivity index (RI) of the right and left cavernous arteries using dynamic Doppler ultrasonography; • VI. […] Need for penis straightening surgery and/or for straightening and a prosthesis, the results being classified as presence or absence of any such need; • VIII. Side effects classified as presence or absence of side effects.

[8] = after therapy, oral 1×2 g/day for 3 months + intraplaque verapamil 10 mg (10 infiltrations, 1 a week)
[9] = after therapy, intraplaque PLC 300 mg or triamcinolone acetonide 40 mg, 1 infiltration per week for 10 weeks
[10] = after therapy, PLC intramuscular 300×2 mg/day, tamoxifen oral 20×2 mg/day, 3 months
[11] = before therapy, 12 subjects per group
[12] = after therapy, PLC intravenous 300×2 mg/day, tamoxifen oral 20×2 mg/day, 3 months
[13] = before therapy, artificially erect penis, 16 patients per group

Row | Structure (SMILES) | Plaque area [1, 8] | Plaque area ([1]; before therapy, mean) | Protection against chemically induced inflammation, in words [2] | Curvature [4, 9] | Plaque area [4, 9] | Curvature ([4]; before therapy) | Plaque area ([4]; before therapy, mean) | Curvature [5, 10] | Plaque area [5, 10] | Curvature [5, 11] | Plaque area ([5]; before therapy, mean) | Curvature [6, 12] | Plaque area [6, 12] | Curvature [6, 13] | Plaque area ([6]; before therapy, mean) | other results
1 | CC(=O)O[C@H](CC(=O)[O-])C[N+](C)(C)C [ALC, acetyl L-carnitine, reference compound] | 11.8 mm^2 | 16.3 mm^2 | not being shared |  |  |  |  |  |  |  |  |  |  |  |  | Activity in the treatment of La Peyronie's disease, in words [3]: significantly more active than tamoxifen
2 | C[N+](C)(C)C[C@H](O)CC(=O)[O-] [L-carnitine] |  |  | not being shared |  |  |  |  |  |  |  |  |  |  |  |  | 
3 | CCC(=O)O[C@H](CC(=O)[O-])C[N+](C)(C)C [PLC, propionyl L-carnitine] | 7.9 mm^2 | 16.4 + mm^2 | capable of affording protection | 14.77 degrees | 15.47 mm^2 | 20.38 degrees | 26.65 mm^2 | 13.00 degrees | 6.47 mm^2 | 17.75 degrees | 11.1 mm^2 | 20.06 degrees | 19.2 mm^2 | 25.31 degrees | 25.6 mm^2 | Activity on plaque area and curvature, in words ([4]; intraplaque PLC compared with intraplaque triamcinolone acetonide): significantly more active than triamcinolone acetonide; Reduction of plaque area, in words ([1]; PLC plus intraplaque verapamil compared with ALC plus intraplaque verapamil): significantly greater extent than acetyl L-carnitine plus intraplaque verapamil; Reduction of plaque area and curvature of the artificially erect penis, in words ([5]; intramuscular PLC compared with oral tamoxifen): significantly greater extent than tamoxifen; Reduction of plaque area and curvature of the artificially erect penis, in words ([6]; intravenous PLC compared with oral tamoxifen): significantly greater extent than tamoxifen; Activity on the variables characterising the disease, in words [7]: significantly more active than combined tamoxifen and verapamil
4 | CC/C(=C(\c1ccccc1)c1ccc(OCCN(C)C)cc1)c1ccccc1 [Tamoxifen, tamoxifen, reference compound] |  |  |  |  |  |  |  | 16.58 degrees | 9.07 mm^2 | 18.08 degrees | 11.6 mm^2 | 23.06 degrees | 25.2 mm^2 | 24.31 degrees | 26.8 mm^2 | 
5 | CC1(C)O[C@@H]2C[C@H]3[C@@H]4CCC5=CC(=O)C=C[C@]5(C)[C@@]4(F)[C@@H](O)C[C@]3(C)[C@]2(C(=O)CO)O1 [Triamcinolone, triamcinolone acetonide, reference compound] |  |  |  | 23.15 degrees | 25.35 mm^2 | 22.69 degrees | 25.23 mm^2 |  |  |  |  |  |  |  |  | 

Source: patent US20050038044A1, “Use of propionyl-carnitine or one of its pharmacologically acceptable salts for the preparation of a medicine for the treatment of la peyronie's disease” (priority 2001, published 2005)
